Measured values taken from ChEMBL document CHEMBL1201862, “PubChem BioAssay data set” (2004).
Activity calls are given as the source filed them.

Tests used:
[1] = cytotoxicity toward NIH3T3 fibroblasts, dose response, counter-screen, cell-based, ATP luminescence, mouse fibroblasts (AID 2010); assay type: functional;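 also: cells exposed to compound for about 90 hours before reading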
[2] = Shn3 3'UTR reporter inhibitors, dose response, cell-based, Clone20 osteoblasts, firefly luciferase, cherry-picked (AID 624132); assay type: functional;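 also: firefly luciferase luminescence from reporter carrying the Shn3 3'UTR in osteoblasts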
[3] = cytotoxicity in MIN6 insulinoma cells, dose response, cytotoxicity control, cell-based, mouse insulinoma (AID 2122); assay type: functional;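 also: confirmatory high-throughput counterscreen run to flag cytotoxic compounds; mouse MIN-6 beta cells carrying an insulin promoter eGFP reporter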
[4] = insulin promoter down-regulators in MIN6 cells, imaging, high-content screening, mouse beta cells (AID 1628); assay type: functional
[5] = target: T1, Short transient receptor potential channel 4 (Mus musculus, UniProt Q9QUQ5); assay: mouse TRPC4 channel activators, dose response, cell-based, HEK293 TRPC4/mu-opioid, Fluo-4 calcium (AID 434937); assay type: functional
T1 sequence (Q9QUQ5 whole entry): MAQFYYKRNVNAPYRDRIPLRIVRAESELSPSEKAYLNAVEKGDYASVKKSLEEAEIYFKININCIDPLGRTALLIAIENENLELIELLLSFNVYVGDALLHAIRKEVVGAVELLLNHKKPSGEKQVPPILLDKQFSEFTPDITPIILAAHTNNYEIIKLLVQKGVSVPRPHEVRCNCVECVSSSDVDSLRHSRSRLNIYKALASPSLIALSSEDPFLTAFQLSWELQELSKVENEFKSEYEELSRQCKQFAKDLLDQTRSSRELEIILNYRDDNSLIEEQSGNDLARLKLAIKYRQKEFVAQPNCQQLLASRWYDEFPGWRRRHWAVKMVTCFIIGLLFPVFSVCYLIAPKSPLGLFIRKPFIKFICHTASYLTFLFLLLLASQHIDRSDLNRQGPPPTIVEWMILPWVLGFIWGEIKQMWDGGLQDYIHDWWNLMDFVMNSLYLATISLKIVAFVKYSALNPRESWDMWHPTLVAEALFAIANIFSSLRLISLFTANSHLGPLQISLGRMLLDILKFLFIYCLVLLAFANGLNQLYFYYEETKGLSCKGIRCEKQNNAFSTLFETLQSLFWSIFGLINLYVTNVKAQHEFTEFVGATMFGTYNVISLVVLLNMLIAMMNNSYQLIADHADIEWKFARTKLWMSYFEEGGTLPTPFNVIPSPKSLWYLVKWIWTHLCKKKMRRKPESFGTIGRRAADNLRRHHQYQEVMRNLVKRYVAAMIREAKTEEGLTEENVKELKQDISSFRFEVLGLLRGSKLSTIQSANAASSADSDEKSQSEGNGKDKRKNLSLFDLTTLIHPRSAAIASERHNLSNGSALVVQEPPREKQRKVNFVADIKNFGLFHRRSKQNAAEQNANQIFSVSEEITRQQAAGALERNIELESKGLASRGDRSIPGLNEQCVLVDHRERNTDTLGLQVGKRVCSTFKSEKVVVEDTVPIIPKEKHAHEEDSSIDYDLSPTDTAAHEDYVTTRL

[6] = control 3'UTR Renilla luciferase suppression, dose response, counter-screen for Shn3 inhibitor project, cell-based, Clone20-Shn3RL, cherry-picked (AID 624133); assay type: functional
[7] = HepG2 cell cytotoxicity, dose response, cytotoxicity control for Shn3 inhibitor project, CellTiter-Glo, cherry-picked (AID 624134); assay type: functional, cell-based
INS1 = assay: beta cell apoptosis inhibitors, cytokine rescue, dose response, luminescence, retest (AID 449756); assay type: functional, cell-based; details: Rattus norvegicus;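 also: cell death triggered by IL-1 beta plus TNF-alpha plus IFN-gamma mixture; protective hits raise ATP signal compared with cytokine alone wells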
[8] = cytotoxicity in HEK-293T cells, dose response, cytotoxicity control for TCR NF-kB inhibitor project, luminescence, T-cell screen hits (AID 489026); assay type: functional, cell-based;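 also: cells exposed to compound about 14 hours before the viability readout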
[9] = inhibitors of intracellular T. cruzi replication, confirmation, NIH3T3 host cells, beta-gal luminescence (AID 2044); assay type: functional, cell-based;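 also: intracellular parasites grown in NIH/3T3 mouse fibroblasts as host cells; luminescent beta-galactosidase reporter signal from transgenic T. cruzi replicating inside host cells; inhibitors lower the luminescence signal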
CAAX prenyl protease 2 = target: T2, CAAX prenyl protease 2 (Homo sapiens, UniProt Q9Y256); assay: human Rce1 protease inhibitors, dose response, biochemical, yeast membranes, quenched-peptide fluorescence, cherry-pick (AID 588849)
T2 sequence (Q9Y256 whole entry): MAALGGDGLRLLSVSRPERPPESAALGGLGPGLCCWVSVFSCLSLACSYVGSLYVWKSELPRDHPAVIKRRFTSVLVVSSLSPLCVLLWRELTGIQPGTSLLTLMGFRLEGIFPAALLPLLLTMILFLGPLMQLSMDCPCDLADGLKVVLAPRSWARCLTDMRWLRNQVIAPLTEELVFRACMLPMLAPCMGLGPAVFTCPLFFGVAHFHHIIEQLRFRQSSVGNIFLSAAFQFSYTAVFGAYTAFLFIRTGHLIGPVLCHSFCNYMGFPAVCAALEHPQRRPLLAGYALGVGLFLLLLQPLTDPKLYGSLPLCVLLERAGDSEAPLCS

Vero [10] = assay: cells; assay type: functional; details: Chlorocebus sabaeus
Vero [11] = assay: cells; assay type: functional, cell-based; details: Chlorocebus sabaeus
[12] = growth induction of Burl-1 ts yeast mutant, dose response, counter-screen for SUMOylation pathway inhibitor project, whole organism, S. cerevisiae, luminescence (AID 463199); assay type: functional
[13] = Luminescence Cell-Based Dose Retest to Confirm Inhibitors of Cancer Stem Cells. [Related pubchem assays (depositor defined):AID2717, AID2721]; assay type: functional; details: Homo sapiens
[14] = target: T3, Microphthalmia-associated transcription factor (Homo sapiens, UniProt O75030); assay: TRPM1 promoter luciferase signal decrease, dose response, MITF inhibitor project, cell-based, SK-MEL-5, cherry-picked, set 3 (AID 493073); assay type: functional
T3 sequence (O75030 whole entry): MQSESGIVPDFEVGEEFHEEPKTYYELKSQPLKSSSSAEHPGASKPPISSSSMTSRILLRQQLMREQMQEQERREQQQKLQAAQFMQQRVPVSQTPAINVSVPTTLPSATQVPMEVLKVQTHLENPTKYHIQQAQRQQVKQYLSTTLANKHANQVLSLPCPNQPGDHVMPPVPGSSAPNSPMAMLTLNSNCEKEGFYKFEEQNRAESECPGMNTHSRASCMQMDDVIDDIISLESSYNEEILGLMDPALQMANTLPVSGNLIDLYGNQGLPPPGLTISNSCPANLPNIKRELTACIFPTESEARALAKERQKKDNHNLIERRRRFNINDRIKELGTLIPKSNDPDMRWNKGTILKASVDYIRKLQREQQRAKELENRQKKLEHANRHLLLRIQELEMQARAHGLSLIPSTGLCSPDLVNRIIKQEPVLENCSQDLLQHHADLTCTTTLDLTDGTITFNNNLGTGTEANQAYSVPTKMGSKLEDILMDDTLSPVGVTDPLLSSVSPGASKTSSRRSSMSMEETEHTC

Beta-galactosidase = Beta-galactosidase (Escherichia coli, UniProt Q8VNN2); assay: PubChem AID 485352; assay type: functional
[15] = target: T4, Type-1 angiotensin II receptor (Homo sapiens, UniProt P30556); assay: AT1 receptor antagonists, dose response, selectivity assay for APJ receptor antagonist project, cell-based, uHTS hits (AID 463214); assay type: functional;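 also: antagonist potency against angiotensin II stimulated AT1 response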
T4 sequence (P30556 whole entry): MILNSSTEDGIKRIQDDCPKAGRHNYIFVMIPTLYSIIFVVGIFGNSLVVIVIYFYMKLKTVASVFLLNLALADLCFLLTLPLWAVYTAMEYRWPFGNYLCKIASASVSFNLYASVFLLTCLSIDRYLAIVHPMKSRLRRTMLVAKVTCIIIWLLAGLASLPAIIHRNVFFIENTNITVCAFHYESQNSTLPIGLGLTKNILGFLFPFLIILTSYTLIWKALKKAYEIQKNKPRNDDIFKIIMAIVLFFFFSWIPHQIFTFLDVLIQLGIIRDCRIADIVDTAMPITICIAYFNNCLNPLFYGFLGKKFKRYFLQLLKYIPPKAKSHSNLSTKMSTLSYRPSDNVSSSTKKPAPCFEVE

[16] = Fluorescence-based cell-based high throughput dose response assay for inhibitors of the interaction of nucleotide-binding oligomerization domain containing 2 (NOD2) and the receptor-interacting serine-threonine kinase 2 (RIPK2).; assay type: functional; details: Homo sapiens
Beta Lactamase = Beta Lactamase (Pseudomonas aeruginosa, UniProt Q932Y6); assay: beta-lactamase reporter inhibitor potency, dose response, artefact control for TLR9-MyD88 binding inhibitor project, BLA reporter cells, FRET fluorescence (AID 588341); assay type: cell-based;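 also: cell based assay in CHO-K1 cells stably expressing beta-lactamase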
CHO = assay: cytotoxicity in TLR9-MyD88 CHO cells, dose response, cytotoxicity control for TLR9-MyD88 binding inhibitor project, cell-based, luminescence (AID 588339); assay type: functional, hamster; details: Cricetulus griseus;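 also: CHO cells stably coexpressing TLR9 and MyD88 fusions from primary screen; compound exposure lasted 48 hours before viability readout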
[17] = target: Voltage-gated inwardly rectifying potassium channel KCNH2 (Homo sapiens, UniProt Q12809); details: Potency;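 also: confirmatory quantitative high-throughput screen measuring inhibition of hERG channel activity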
[18] = target: T5, Corticotropin-releasing factor receptor 2/Corticotropin-releasing factor-binding protein (Homo sapiens, UniProt P24387+Q13324); assay: Dose Response confirmation of uHTS hits for small molecule antagonists of the CRF-binding protein and CRF-R2 receptor complex.; assay type: functional; details: read-out: IC50_Mean
T5 sequence (Q13324 whole entry): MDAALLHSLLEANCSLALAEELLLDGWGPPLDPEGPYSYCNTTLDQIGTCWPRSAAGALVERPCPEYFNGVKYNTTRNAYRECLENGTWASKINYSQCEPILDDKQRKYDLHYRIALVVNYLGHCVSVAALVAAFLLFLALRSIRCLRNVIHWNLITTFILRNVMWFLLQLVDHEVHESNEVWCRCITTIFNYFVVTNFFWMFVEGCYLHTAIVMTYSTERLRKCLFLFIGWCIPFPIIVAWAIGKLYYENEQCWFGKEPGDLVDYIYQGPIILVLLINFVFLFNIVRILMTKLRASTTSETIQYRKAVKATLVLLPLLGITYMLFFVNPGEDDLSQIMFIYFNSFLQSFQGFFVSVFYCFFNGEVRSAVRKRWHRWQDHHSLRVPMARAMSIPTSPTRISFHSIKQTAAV
T5 sequence (P24387 whole entry): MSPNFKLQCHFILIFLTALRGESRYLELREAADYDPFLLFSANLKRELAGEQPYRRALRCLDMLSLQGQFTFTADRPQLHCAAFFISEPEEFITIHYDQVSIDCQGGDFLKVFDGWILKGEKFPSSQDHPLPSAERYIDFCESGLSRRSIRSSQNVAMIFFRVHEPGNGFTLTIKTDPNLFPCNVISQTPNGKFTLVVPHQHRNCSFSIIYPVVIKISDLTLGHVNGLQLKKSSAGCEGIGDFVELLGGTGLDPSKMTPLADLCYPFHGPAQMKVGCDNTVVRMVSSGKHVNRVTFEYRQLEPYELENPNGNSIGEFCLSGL

[19] = target: T5, Corticotropin-releasing factor receptor 2/Corticotropin-releasing factor-binding protein; assay: activators of CRF receptor 2 with binding protein – uHTS hits, confirmation (AID 602473); assay type: functional; details: read-out: EC50_Mean
Cytochrome P450 3A4 = Cytochrome P450 3A4 (Homo sapiens, UniProt P08684);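 also: CYP3A4 tested as one member of a cytochrome P450 panel screen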
Cytochrome P450 2C19 = Cytochrome P450 2C19 (Homo sapiens, UniProt P33261); assay: Cytochrome panel assay with activity outcomes. Panel member name: p450-cyp2c19 Compounds with AC50 equal or less than 10 uM are considered active; assay type: functional
Cytochrome P450 2C9 = Cytochrome P450 2C9 (Homo sapiens, UniProt P11712)
Cytochrome P450 2C9, sequence (P11712 whole entry): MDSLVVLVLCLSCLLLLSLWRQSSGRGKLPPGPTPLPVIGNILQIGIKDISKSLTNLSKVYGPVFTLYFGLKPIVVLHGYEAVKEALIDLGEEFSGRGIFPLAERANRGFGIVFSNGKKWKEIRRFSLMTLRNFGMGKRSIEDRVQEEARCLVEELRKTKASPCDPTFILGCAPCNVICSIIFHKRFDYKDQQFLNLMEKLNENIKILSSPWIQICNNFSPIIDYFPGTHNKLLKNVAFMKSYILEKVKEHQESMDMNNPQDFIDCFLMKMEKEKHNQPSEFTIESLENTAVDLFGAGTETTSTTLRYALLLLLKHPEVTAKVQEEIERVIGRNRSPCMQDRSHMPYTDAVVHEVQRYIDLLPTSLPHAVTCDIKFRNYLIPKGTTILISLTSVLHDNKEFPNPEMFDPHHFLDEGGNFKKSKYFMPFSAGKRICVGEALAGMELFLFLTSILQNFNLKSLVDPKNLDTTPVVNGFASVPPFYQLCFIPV

Beta-galactosidase, sequence (Q8VNN2 whole entry): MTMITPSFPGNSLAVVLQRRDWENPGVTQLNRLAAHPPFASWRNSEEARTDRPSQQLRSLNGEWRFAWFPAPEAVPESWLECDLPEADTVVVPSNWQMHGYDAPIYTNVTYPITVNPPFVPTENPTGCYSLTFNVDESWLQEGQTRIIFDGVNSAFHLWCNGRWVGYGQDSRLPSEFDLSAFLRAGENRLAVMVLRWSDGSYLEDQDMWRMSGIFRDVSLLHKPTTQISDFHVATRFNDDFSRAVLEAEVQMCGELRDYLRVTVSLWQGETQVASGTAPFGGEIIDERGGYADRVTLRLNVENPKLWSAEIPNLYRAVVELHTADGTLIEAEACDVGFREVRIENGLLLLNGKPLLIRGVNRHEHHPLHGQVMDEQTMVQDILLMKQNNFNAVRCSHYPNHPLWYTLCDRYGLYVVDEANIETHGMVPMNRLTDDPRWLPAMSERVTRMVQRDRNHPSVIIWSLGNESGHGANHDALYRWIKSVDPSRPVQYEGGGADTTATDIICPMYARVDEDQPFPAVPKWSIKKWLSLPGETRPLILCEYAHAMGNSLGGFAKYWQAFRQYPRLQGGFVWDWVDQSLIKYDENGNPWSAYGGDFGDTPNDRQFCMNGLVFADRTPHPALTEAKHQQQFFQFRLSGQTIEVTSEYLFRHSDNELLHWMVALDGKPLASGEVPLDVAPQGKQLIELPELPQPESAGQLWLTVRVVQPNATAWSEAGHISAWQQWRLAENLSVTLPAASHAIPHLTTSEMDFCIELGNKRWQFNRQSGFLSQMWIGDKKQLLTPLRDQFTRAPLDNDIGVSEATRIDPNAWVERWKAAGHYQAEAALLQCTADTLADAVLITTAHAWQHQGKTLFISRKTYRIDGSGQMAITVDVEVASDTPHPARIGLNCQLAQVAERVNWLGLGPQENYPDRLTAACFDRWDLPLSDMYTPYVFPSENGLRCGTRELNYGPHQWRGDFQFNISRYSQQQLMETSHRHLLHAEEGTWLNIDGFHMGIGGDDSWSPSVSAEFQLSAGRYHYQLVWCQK
Voltage-gated inwardly rectifying potassium channel KCNH2, sequence (Q12809 whole entry): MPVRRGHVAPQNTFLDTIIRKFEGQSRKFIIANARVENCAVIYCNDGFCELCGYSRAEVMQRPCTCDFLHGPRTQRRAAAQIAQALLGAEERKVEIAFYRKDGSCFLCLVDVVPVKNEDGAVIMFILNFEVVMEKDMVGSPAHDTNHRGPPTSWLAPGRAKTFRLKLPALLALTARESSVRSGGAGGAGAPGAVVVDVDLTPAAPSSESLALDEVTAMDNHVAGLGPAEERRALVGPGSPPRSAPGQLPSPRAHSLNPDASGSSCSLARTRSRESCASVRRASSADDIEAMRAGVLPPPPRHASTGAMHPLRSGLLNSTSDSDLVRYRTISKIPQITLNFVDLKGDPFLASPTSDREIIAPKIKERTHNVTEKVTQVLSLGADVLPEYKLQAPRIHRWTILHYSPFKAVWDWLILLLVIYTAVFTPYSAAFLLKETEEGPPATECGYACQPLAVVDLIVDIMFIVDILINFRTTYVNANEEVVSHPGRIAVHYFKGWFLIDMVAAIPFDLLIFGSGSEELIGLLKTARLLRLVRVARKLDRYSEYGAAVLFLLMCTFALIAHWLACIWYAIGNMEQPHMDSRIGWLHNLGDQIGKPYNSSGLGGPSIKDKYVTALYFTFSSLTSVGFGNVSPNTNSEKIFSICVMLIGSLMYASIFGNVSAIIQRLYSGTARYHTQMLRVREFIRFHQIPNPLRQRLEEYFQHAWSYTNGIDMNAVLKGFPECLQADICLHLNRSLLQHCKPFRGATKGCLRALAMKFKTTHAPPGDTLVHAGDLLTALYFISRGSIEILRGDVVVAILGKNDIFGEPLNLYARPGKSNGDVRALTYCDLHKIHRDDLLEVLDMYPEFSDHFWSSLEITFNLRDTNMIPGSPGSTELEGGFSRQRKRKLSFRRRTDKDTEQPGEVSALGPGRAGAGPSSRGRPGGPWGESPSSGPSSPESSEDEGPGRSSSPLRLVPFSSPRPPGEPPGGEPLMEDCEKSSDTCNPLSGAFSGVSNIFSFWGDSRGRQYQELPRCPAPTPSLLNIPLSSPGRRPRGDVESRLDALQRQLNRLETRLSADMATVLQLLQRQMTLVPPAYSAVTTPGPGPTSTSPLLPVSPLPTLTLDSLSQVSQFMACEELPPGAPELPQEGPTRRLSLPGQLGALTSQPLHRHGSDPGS
Beta Lactamase, sequence (Q932Y6 whole entry, the tested form may be a part): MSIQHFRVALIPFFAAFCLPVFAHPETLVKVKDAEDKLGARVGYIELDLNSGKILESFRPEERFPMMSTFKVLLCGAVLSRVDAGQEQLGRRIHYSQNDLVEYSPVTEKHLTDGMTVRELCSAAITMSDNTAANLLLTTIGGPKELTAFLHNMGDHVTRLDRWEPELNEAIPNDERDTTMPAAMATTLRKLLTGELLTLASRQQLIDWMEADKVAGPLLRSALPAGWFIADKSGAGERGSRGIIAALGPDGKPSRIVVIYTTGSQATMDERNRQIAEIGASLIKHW
Cytochrome P450 3A4, sequence (P08684 whole entry): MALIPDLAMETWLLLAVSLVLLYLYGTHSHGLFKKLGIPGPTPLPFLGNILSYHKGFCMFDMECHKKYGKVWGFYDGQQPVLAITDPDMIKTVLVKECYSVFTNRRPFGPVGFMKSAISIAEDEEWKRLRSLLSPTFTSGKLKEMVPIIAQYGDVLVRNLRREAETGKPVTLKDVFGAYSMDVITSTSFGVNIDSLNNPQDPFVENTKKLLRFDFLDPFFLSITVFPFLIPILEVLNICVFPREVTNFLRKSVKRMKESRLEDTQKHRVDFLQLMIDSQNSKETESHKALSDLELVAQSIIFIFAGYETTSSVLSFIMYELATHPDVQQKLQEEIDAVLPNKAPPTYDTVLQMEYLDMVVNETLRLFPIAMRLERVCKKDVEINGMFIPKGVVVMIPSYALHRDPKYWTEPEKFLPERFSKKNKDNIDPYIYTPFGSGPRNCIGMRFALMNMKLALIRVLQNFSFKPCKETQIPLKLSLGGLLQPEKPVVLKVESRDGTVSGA
Cytochrome P450 2C19, sequence (P33261 whole entry): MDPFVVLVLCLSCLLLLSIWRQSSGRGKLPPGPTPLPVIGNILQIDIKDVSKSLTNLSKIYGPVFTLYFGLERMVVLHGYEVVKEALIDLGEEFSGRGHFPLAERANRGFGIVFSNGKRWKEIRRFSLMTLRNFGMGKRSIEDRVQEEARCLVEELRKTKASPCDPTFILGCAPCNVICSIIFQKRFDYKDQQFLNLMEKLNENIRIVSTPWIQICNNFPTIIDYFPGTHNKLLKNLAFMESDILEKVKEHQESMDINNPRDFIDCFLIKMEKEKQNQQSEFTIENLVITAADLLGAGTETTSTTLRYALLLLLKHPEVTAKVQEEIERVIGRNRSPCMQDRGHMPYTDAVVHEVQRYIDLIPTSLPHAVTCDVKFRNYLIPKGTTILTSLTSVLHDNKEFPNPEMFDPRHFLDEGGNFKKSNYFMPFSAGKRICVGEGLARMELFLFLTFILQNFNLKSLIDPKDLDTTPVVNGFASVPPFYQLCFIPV

Cc1sc2ncnc(NC3CCN(Cc4ccccc4)CC3)c2c1C
EC50 [1]: > 60 µM (not active)
AC50 [2]: 1.02 µM (active)
IC50 [3]: 0.316 µM (active)
IC50 [4]: 0.411 µM (active)
EC50 [5]: 0.0467 µM (active)
AC50 [6]: 2.61 µM (active)
AC50 [7]: 3.41 µM (active)
AC50 (INS1): 2.88 µM (active)
IC50 [8]: > 80 µM (inactive)
EC50 [9]: 1.78 µM (active)

Cc1csc2nc(=O)c3ccccc3n12
AC50 (CAAX prenyl protease 2): 63 µM (active)

CCc1c(C)sc(NC(=O)C2CC2c2ccccc2)c1C(N)=O (centres undefined)
CC50 (Vero [10]): > 25 µM (active)
IC50 (Vero [11]): 3.57 µM (active)

CC1CCN(C(=O)Cn2cnc3c2c(=O)n(C)c(=O)n3C)c2ccccc2S1 (centres undefined)
AC50 [12]: 87.7 µM (active)

CCn1c(=O)c([N+](=O)[O-])c(Cl)c2ccccc21
AC50 [13]: 1.85 µM (active)
EC50 [1]: 15 µM (active)
AC50 [14]: 7.21 µM (active)
EC50 (Beta-galactosidase): > 40 µM (inactive)
IC50 [15]: 2.22 µM (active)
IC50 [16]: 0.622 µM (active)
IC50 (Beta Lactamase): 28.6 µM (inactive)
IC50 (CHO): 1.03 µM (active)
AC50 (INS1): 5.02 µM (active)
EC50 [9]: 1.89 µM (active)

CC(C)C[C@H](N)CSSC[C@@H](N)CC(C)C
AC50 [17]: 35.5 µM (inconclusive)

CS(=O)(=O)Nc1ccccc1C(=O)NCc1ccccc1Cl
IC50 [18]: > 47.1 µM (inactive)
EC50 [19]: > 53 µM (inactive)
AC50 (CAAX prenyl protease 2): 12.8 µM (active)

COc1ccc(C(=O)CNc2cccc(F)c2)cc1
EC50 (Beta-galactosidase): > 40 µM (inactive)
IC50 [15]: 28 µM (not active)

CC(=O)c1cccc(CN2CCCC(N3CCN(c4ccccc4F)CC3)C2)c1 (centres undefined)
AC50 [12]: 49.9 µM (active)

Cc1ccc(C)c2nc3sc(C(=O)N4CCCc5ccccc54)c(N)c3cc12
EC50 [1]: > 60 µM (not active)
EC50 [19]: 8.83 µM (active)
EC50 (Beta-galactosidase): > 40 µM (inactive)
IC50 [15]: > 40 µM (not active)
EC50 [9]: 1.56 µM (active)

OC(COc1ccc(CNCCc2ccc(C(F)(F)F)cc2)cc1)CN1CCCCC1 (centres undefined)
EC50 [1]: 5.08 µM (active)
CC50 (Vero [10]): 16.4 µM (active)
IC50 (Vero [11]): 8.76 µM (active)
EC50 [9]: 1.26 µM (active)

CC(=O)N1CCN(c2ccc(NC(=O)c3ccc(C)cc3)cc2)CC1
AC50 (Cytochrome P450 3A4): inconclusive
AC50 (Cytochrome P450 2C19): 15.8 µM (inconclusive)
AC50 (Cytochrome P450 2C9): 39.8 µM (inconclusive)

CC(COc1ccc(/C=C/c2ccccc2)cc1)[N+](C)(C)C (centres undefined)
AC50 [17]: 22.4 µM (inconclusive)
